Results published in US10806740B2, “Natural combination hormone replacement formulations and therapies” (TherapeuticsMD, Inc., priority 2012, dated 2020).

Experiments:
Format in all cases: physicochemical
[1] = Estradiol solutions after addition of 7% water
Text: In addition to determining physical stability of the estradiol solutions over time, it is necessary to determine if the fill material will be stable during the encapsulation process. One way to test these preparations is with the addition of water to the fill mass. […].
All CAPMUL® PG8 containing formulations turned hazy on the addition of water.

[2] = Particle size analysis with Beckman Device (laser diffraction); details: Fraunhofer optical model
Description: Particle size may be determined in any suitable manner. For example, a Beckman Coulter LS 13 320 Laser Diffraction Particle Size Analyzer (the “Beckman Device”) may be used to determine particle size. As described above, particle size may be represented by various metrics, for example, through an X50 particle size, and/or X90 particle size, or similar descriptions of particle size.
For the purposes of this Example, a particle size analysis is conducted by using the Beckman Device. A sample API comprising micronized progesterone in accordance with various embodiments is provided for analysis.
Approximately 0.01 g of a sample API in accordance with various embodiments was combined with Coulter 1B and 10 mL of deionized water. Sonication was performed for 15 seconds. The Beckman Device, equipped with a ULM, performed analysis for 90 seconds. The Beckman Device was configured to use the Fraunhofer optical model. […] The Beckman Device also yielded that the mean particle size is 4.975 μm, the median particle size is 4.279 μm, the mode particle size is 6.453 μm, and the standard deviation is 3.956 μm.
A formulation sample having approximately 200 mg of micronized progesterone and 2 mg of estradiol was dispersed with oil. The Beckman Device, equipped with a MLM, performed analysis for 60 seconds. The Beckman Device was configured to use the Fraunhofer optical model.

[3] = Progesterone solubility in solvents
Text: . Thus, MIGLYOL® may be used in embodiments comprising a suspension of progesterone, though MIGLYOL®, standing alone, is not desirable for use in embodiments having fully solubilized progesterone and/or estradiol.

C[C@]12CC[C@@H]3c4ccc(O)cc4CC[C@H]3[C@@H]1CC[C@@H]2O [Estradiol, (17β)-estra-1,3,5(10)-triene-3,17-diol]
Results after addition of 7% water ([1]; estradiol 6 mg/g in CAPMUL MCM): without recrystallization | Results after addition of 7% water ([1]; estradiol 6 mg/g in MIGLYOL 812:CAPMUL PG8 (75:25)): Precipitated | Results after addition of 7% water ([1]; estradiol 6 mg/g in Polyethylene Glycol 400): without recrystallization | Results after addition of 7% water ([1]; estradiol 12 mg/g in CAPMUL MCM): Clear | Results after addition of 7% water ([1]; estradiol 12 mg/g in MIGLYOL 812:CAPMUL PG8 (50:50)): Hazy | Results after addition of 7% water ([1]; estradiol 12 mg/g in Polyethylene Glycol 400): clear | Results after addition of 7% water ([1]; estradiol 12 mg/g in TRANSCUTOL:MIGLYOL 812:CAPMUL PG8 (5:47:47)): Hazy | Results after addition of 7% water ([1]; estradiol 12 mg/g in TRANSCUTOL:MIGLYOL 812:CAPMUL PG8 (5:65:28)): Hazy

CC(=O)[C@H]1CC[C@H]2[C@@H]3CCC4=CC(=O)CC[C@]4(C)[C@H]3CC[C@]12C [Progesterone, pregn-4-ene-3,20-dione]
X25 particle size [2]: 1.590 μm | X50 particle size [2]: 4.279 μm | X75 particle size [2]: 7.442 μm | mean particle size [2]: 4.975 μm | median particle size [2]: 4.279 μm | mode particle size [2]: 6.453 μm | Progesterone Solubility ([3]; in CAPMUL MCM): 73.4 mg/g | Progesterone Solubility ([3]; in CAPMUL MCM:GELUCIRE 44/14 (6:3)): 57.4 mg/g | Progesterone Solubility ([3]; in CAPMUL MCM:GELUCIRE 44/14 (6:4)): 57.4 mg/g | Progesterone Solubility ([3]; in CAPMUL MCM:GELUCIRE 44/14 (7:3)): 70.5 mg/g | Progesterone Solubility ([3]; in CAPMUL MCM:GELUCIRE 44/14 (9:1)): 86.4 mg/g | Progesterone Solubility ([3]; in CAPMUL MCM:GELUCIRE 44/14 (9:1), listed as progesterone): approximately 86 mg/g | Progesterone Solubility ([3]; in CAPMUL MCM, listed as progesterone): ~73 mg/g | Progesterone Solubility ([3]; in CAPMUL PG8): 95 mg/g | Progesterone Solubility ([3]; in MIGLYOL 812): 27.8 mg/g
